Reference: article PMC9916163, “Evaluation of the Cytotoxic Effect of Pd2Spm against Prostate Cancer through Vibrational Microspectroscopies” (International Journal of Molecular Sciences, 2023)
Read-outs that look alike come from different tables or passages of the source.

Experiments:
PC-3 cell line = experiment: MTT cytotoxicity assay, PC-3 cells; type: cell-based, human; conditions: prostate cancer cells, read-out: Half maximal inhibitory concentration (IC50) PC-3
Method: (§1) The human prostate cancer (PC-3 and LNCaP) and non-tumorigenic (PNT-2) cell lines were obtained from the ECCAC Culture Collections and supplied by Sigma-Aldrich Chemical S.A. (Sintra, Portugal). They were cultured as monolayers, at 37 °C, in a humidified atmosphere of 5% CO2. The cultures were maintained in RPMI-1640 culture medium, supplemented with 10% (v/v) heat-inactivated FBS and 1% (v/v) penicillin/streptomycin. The cells were subcultured at 80% confluence, using 0.05% trypsin-EDTA (1×) in PBS.
(§2) For all cell lines (PC-3, LNCaP and PNT-2), cell cultures were established in 96-well plates (100 µL/well) at a density of 3 × 10^4 cells/cm^2, and were allowed to attach for 24 h. Triplicates were treated for different incubation periods (three independent experiments) with a range of concentrations between 2 and 32 µM of the tested compounds (cisplatin and Pd2Spm). According to the population doubling time for all cell lines (ca. 24 h), 24, 48, and 72 h timepoints after drug administration were chosen.
(§3) In order to evaluate cell viability, the MTT assay was used. Briefly, at each time-point, the growth media was removed, cells were washed with PBS and MTT solution (2.5 mg/mL) was added to each well (100 µL). After 3 h of incubation at 37 °C, the formazan crystals were solubilized in DMSO (100 µL), and the absorbance was measured at 570 nm.
(§4) Cells viability data results are expressed as mean ± standard error of the mean (SEM) and compared with non-treated controls. Statistical analysis was carried out through one-way ANOVA followed by Tukey’s multiple comparison test. A p-value < 0.05 was considered statistically significant.

LNCaP cell line = experiment: MTT cytotoxicity assay, LNCaP cells; type: cell-based, human; conditions: prostate cancer cells, read-out: Half maximal inhibitory concentration (IC50) LNCaP
Method: as §1, §2, §3, §4

PNT-2 cell line = experiment: MTT cytotoxicity assay, PNT-2 cells; type: cell-based, human; conditions: prostate non-cancer cells, read-out: Half maximal inhibitory concentration (IC50) PNT-2
Method: as §1, §2
In order to evaluate cell viability, the MTT assay was used. […] After 3 h of incubation at 37 °C, the formazan crystals were solubilized in DMSO (100 µL), and the absorbance was measured at 570 nm.
Cells viability data results are expressed as mean ± standard error of the mean (SEM) and compared with non-treated controls. […]

PC-3 [1] = system: PC-3; design: method as in PMID 17541592; conditions: 72 h, SRB method; read-out: Value previously reported (IC50) PC-3; cited from earlier work
PC-3 [2] = system: PC-3; design: method as in PMID 24366574; conditions: 48 h, MTT method; read-out: Value previously reported (IC50) PC-3; cited from earlier work
LNCaP = system: LNCaP; design: method as in PMID 17541592; conditions: 48 h, SRB method; read-out: Value previously reported (IC50) LNCaP; cited from earlier work
PNT-2 = system: PNT-2; design: method as in PMID 34277574; conditions: 96 h, MTT method; read-out: Value previously reported (IC50) PNT-2; cited from earlier work

Compound `N.N.[Cl][Pt][Cl]` [Cisplatin, cis-dichlorodiammine platinum(II)] has an IC50 (PC-3 cell line; 24 h incubation) of 25.6 µM, an IC50 (PC-3 cell line; 48 h incubation) of 3 µM and an IC50 (PC-3 cell line; 72 h incubation) of 0.7 µM. For the same compound, the IC50 (LNCaP cell line; 24 h incubation) was 13.6 µM, the IC50 (LNCaP cell line; 48 h incubation) was 7.3 µM and the IC50 (LNCaP cell line; 72 h incubation) was 2.7 µM. For the same compound, the IC50 (PNT-2 cell line; 48 h incubation) was 5.2 µM, the IC50 (PNT-2 cell line; 72 h incubation) was 2.4 µM and the IC50 (PC-3 [1]) was 1 µM. The IC50 (PC-3 [2]) was 10.6 µM, the IC50 (LNCaP) was 3.7 µM and the IC50 (PNT-2) was 8.5 µM.
